{"source": "patent US8664243B2", "about": "“Sulfonamide compound and crystal thereof” (Asahi Kasei Pharma Corporation, priority 2007, dated 2014)", "assay_type_in_all_cases": "physicochemical", "key": {"[1]": {"experiment": "Measurement of water content (coulometric titration method)", "conditions": "as prepared, sample 5 mg", "source_text": "For evaluation of purity of Compound 1 or the substance in the form of a salt, the area percentage method based on HPLC is convenient. For evaluation of water content of Compound 1 or the substance in the form of a salt, the volumetric titration method, the coulometric titration method described in Japanese Pharmacopoeia, General Test Methods, “Water Determination”, the loss on drying test and the like can be used. When sample weight is small, the coulometric titration method can be preferably chosen."}, "[2]": {"experiment": "Hygroscopicity Test 1 (open glass weighing dish, dark place, 25° C. and 84% RH)", "conditions": "for Appearance / Water content / Purity: 25° C. and 84% RH, dark, open; for Purity: HPLC", "procedure": "Hygroscopicity of Compound 1 or the substance in the form of a salt can be evaluated by putting a sample on a glass weighing dish, storing the dish in a dark place for a given period of time in an open state at a temperature of 25 to 40° C. under a humidification condition of about 75 to 94% relative humidity, and then observing or measuring appearance, purity, water content and the like of Compound 1 or the substance in the form of a salt. Increase of water content before and after storage especially serves as an important hygroscopic index. For example, the evaluation is preferably performed after storage conditions of 25° C. and 84% RH. • High performance liquid chromatography apparatus: LC-10A Series (Shimadzu) or Agilent 1100 series (Agilent Technologies) • Solution concentration: 500 μg/ml • Injection: 10 μl • Detector: Ultraviolet absorptiometer (measurement wavelength: 245 nm) • Column: XBridge Shield RP18 5 μm, internal diameter: 4.6 mm, length: 15 cm (Waters) • Column temperature: Constant temperature around 40° C. • Mobile phase A: 20 mmol/l Sodium phosphate buffer (pH 7.0) • Mobile phase B: Acetonitrile • Liquid feeding program: A concentration gradient was formed by changing the mixing ratio of the mobile phase A and the mobile phase B as shown in Table 1. • Flow rate: 1.0 ml/minute • Water content measurement apparatus: AQ-7 (Hiranuma Sangyo) • Sample amount: 5 mg • Anolyte: Aqualyte RS (Sigma-Aldrich) • Catholyte: Aqualyte CN (Sigma-Aldrich) The monohydrochloride obtained by the method described in Example 3, the monohydrobromide obtained by the method described in Example 4, and the dihydrochloride as a control were weighed on a glass weighing dish in an amount of 40 mg each, and each sample was stored in a dark place at 25° C. and 84% RH for 2 to 4 weeks. After the storage, appearance was evaluated by visual inspection. Further, purity was measured under the conditions of Test Example 7, and water content was measured under the conditions of Test Example 8."}, "[3]": {"experiment": "Hygroscopicity Test 2 (25° C. and 84% RH; free base, salts and salt mixtures)", "conditions": "for Appearance / Water content / Purity: 25° C. and 84% RH, dark; for Purity: HPLC", "procedure": "Hygroscopicity of Compound 1 or the substance in the form of a salt can be evaluated by putting a sample on a glass weighing dish, storing the dish in a dark place for a given period of time in an open state at a temperature of 25 to 40° C. under a humidification condition of about 75 to 94% relative humidity, and then observing or measuring appearance, purity, water content and the like of Compound 1 or the substance in the form of a salt. Increase of water content before and after storage especially serves as an important hygroscopic index. For example, the evaluation is preferably performed after storage conditions of 25° C. and 84% RH. • High performance liquid chromatography apparatus: LC-10A Series (Shimadzu) or Agilent 1100 series (Agilent Technologies) • Solution concentration: 500 μg/ml • Injection: 10 μl • Detector: Ultraviolet absorptiometer (measurement wavelength: 245 nm) • Column: XBridge Shield RP18 5 μm, internal diameter: 4.6 mm, length: 15 cm (Waters) • Column temperature: Constant temperature around 40° C. • Mobile phase A: 20 mmol/l Sodium phosphate buffer (pH 7.0) • Mobile phase B: Acetonitrile • Liquid feeding program: A concentration gradient was formed by changing the mixing ratio of the mobile phase A and the mobile phase B as shown in Table 1. • Flow rate: 1.0 ml/minute • Water content measurement apparatus: AQ-7 (Hiranuma Sangyo) • Sample amount: 5 mg • Anolyte: Aqualyte RS (Sigma-Aldrich) • Catholyte: Aqualyte CN (Sigma-Aldrich) Compound 1 obtained by a method similar to the method described in Example 1 (two kinds of lots), the monohydrochloride obtained by the method described in Example 3, the dihydrochloride, and mixtures of the monohydrochloride and the dihydrochloride at ratios of 9:1, 8:2, 6:4, 4:6 and 2:8 were weighed on a glass weighing dish in an amount of each 40 mg, and each sample was stored in a dark place at 25° C. and 84% RH for 2 to 4 weeks. After the storage, appearance was evaluated by visual inspection. Further, purity was measured under the conditions of Test Example 7, and water content was measured under the conditions of Test Example 8."}, "[4]": {"experiment": "Thermal stability test (sealed glass vial, dark place, 60° C.)", "conditions": "for Appearance / Water content / Purity: 60° C., dark, sealed vial; for Purity: HPLC", "procedure": "Thermal stability of Compound 1 or the substance in the form of a salt can be evaluated by, for example, sealing a sample in a glass vial or the like, storing the vial under a severe temperature condition such as 40 to 80° C. in a dark place for a given period of time, and then observing or measuring appearance, purity, water content and the like of Compound 1 or the substance in the form of a salt. Change of purity before and after storage especially serves as an important index of thermal stability. For example, the evaluation is preferably performed under a storage condition of 60° C. • High performance liquid chromatography apparatus: LC-10A Series (Shimadzu) or Agilent 1100 series (Agilent Technologies) • Solution concentration: 500 μg/ml • Injection: 10 μl • Detector: Ultraviolet absorptiometer (measurement wavelength: 245 nm) • Column: XBridge Shield RP18 5 μm, internal diameter: 4.6 mm, length: 15 cm (Waters) • Column temperature: Constant temperature around 40° C. • Mobile phase A: 20 mmol/l Sodium phosphate buffer (pH 7.0) • Mobile phase B: Acetonitrile • Liquid feeding program: A concentration gradient was formed by changing the mixing ratio of the mobile phase A and the mobile phase B as shown in Table 1. • Flow rate: 1.0 ml/minute • Water content measurement apparatus: AQ-7 (Hiranuma Sangyo) • Sample amount: 5 mg • Anolyte: Aqualyte RS (Sigma-Aldrich) • Catholyte: Aqualyte CN (Sigma-Aldrich) The monohydrochloride obtained by the method described in Example 3, the monohydrobromide obtained by the method described in Example 4, and the dihydrochloride as a control were weighed in a glass vial in an amount of 40 mg each, and the glass vial was sealed. Each sample was stored in a dark place at 60° C. for 2 to 4 weeks, and after the storage, appearance was evaluated by visual inspection. Further, purity was measured under the conditions of Test Example 7, and water content was measured under the conditions of Test Example 8."}, "[5]": {"conditions": "after storage at 25° C. and 84% RH for 4 weeks"}, "[6]": {"conditions": "after storage at 60° C. for 4 weeks"}}}
{"smiles": "CN[C@H]1CCN(S(=O)(=O)c2cccc3cncc(Cl)c23)C1.Cl", "note": "[Monohydrochloride, (S)-1-(4-chloro-5-isoquinolinesulfonyl)-3-(methylamino)pyrrolidine monohydrochloride]", "values": [{"measurement": "Water content", "setting": "[1]", "value": 0.20, "unit": "%"}, {"measurement": "Appearance", "setting": "[2]; after 2 weeks", "value": "White"}, {"measurement": "Water content", "setting": "[2]; after 2 weeks", "value": 0.23, "unit": "%"}, {"measurement": "Appearance", "setting": "[2]; after 4 weeks", "value": "White"}, {"measurement": "Water content", "setting": "[2]; after 4 weeks", "value": 0.26, "unit": "%"}, {"measurement": "Appearance", "setting": "[2]; before storage", "value": "White"}, {"measurement": "Water content", "setting": "[2]; before storage", "value": 0.20, "unit": "%"}, {"measurement": "Purity", "setting": "[2]; after 2 weeks", "value": 99.8, "unit": "%"}, {"measurement": "Purity", "setting": "[2]; after 4 weeks", "value": 99.6, "unit": "%"}, {"measurement": "Purity", "setting": "[2]; before storage", "value": 99.4, "unit": "%"}, {"measurement": "Hygroscopicity compared with the dihydrochloride", "setting": "[2]; Test Example 10, 25° C. and 84% RH", "value": "remarkably lower hygroscopicity"}, {"measurement": "Change of appearance", "setting": "[2]; [5]", "value": "no change of appearance"}, {"measurement": "Degradation of purity", "setting": "[2]; [5]", "value": "no degradation of purity"}, {"measurement": "Increase of water content", "setting": "[2]; [5]", "value": "no substantial increase of water content"}, {"measurement": "Appearance", "setting": "[3]; after 2 weeks", "value": "White"}, {"measurement": "Water content", "setting": "[3]; after 2 weeks", "value": 0.1, "unit": "%"}, {"measurement": "Appearance", "setting": "[3]; before storage", "value": "White"}, {"measurement": "Water content", "setting": "[3]; before storage", "value": 0.0, "unit": "%"}, {"measurement": "Purity", "setting": "[3]; after 2 weeks", "value": 100.0, "unit": "%"}, {"measurement": "Purity", "setting": "[3]; before storage", "value": 100.0, "unit": "%"}, {"measurement": "Hygroscopicity compared with Compound 1 (free base) and mixtures", "setting": "[3]; Test Example 11, 25° C. and 84% RH", "value": "hygroscopicity lower than any of Compound 1 (free base) and mixtures of the monohydrochloride and the dihydrochloride"}, {"measurement": "Appearance", "setting": "[4]; after 2 weeks", "value": "White"}, {"measurement": "Water content", "setting": "[4]; after 2 weeks", "value": 0.06, "unit": "%"}, {"measurement": "Appearance", "setting": "[4]; after 4 weeks", "value": "White"}, {"measurement": "Water content", "setting": "[4]; after 4 weeks", "value": 0.08, "unit": "%"}, {"measurement": "Appearance", "setting": "[4]; before storage", "value": "White"}, {"measurement": "Water content", "setting": "[4]; before storage", "value": 0.20, "unit": "%"}, {"measurement": "Purity", "setting": "[4]; after 2 weeks", "value": 99.9, "unit": "%"}, {"measurement": "Purity", "setting": "[4]; after 4 weeks", "value": 99.7, "unit": "%"}, {"measurement": "Purity", "setting": "[4]; before storage", "value": 99.4, "unit": "%"}, {"measurement": "Thermal stability compared with the dihydrochloride", "setting": "[4]; Test Example 9, 60° C.", "value": "more satisfactory thermal stability"}, {"measurement": "Change of appearance", "setting": "[4]; [6]", "value": "no change of appearance"}, {"measurement": "Degradation of purity", "setting": "[4]; [6]", "value": "no degradation of purity"}]}
